Test results from patent US20090048293A1 (priority 2005, published 2009).
Values joined by “and” are separate entries in the source; they are usually repeats but may differ in a detail not shown here. Equal values may be shown once. “Also recorded” adds a separate entry of the source. Read-outs that look alike come from different tables or passages of the source. Where a SMILES comes first, the peptide text is derived from it. [ ]: non-standard residue; d: D form. The star is where a group is joined. Sta = CC(C)C[C@H](N)[C@@H](O)CC(=O)O; Isovaleryl = CC(C)CC(=O)*

Columns and labels:
Npr599 = format: biochemical, Bacillus anthracis
InhA = format: biochemical, Bacillus anthracis
[1] = system: syndecan-1 ectodomain shedding from NMuMG cells; format: cell-based, murine
[2] = system: syndecan-1 shedding of NMuMG cells; format: cell-based, murine
TLR2 = format: cell-based

SMILES: CC(C)CC(=O)N[C@H](C(=O)N[C@H](C(=O)N[C@@H](CC(C)C)[C@@H](O)CC(=O)N[C@@H](C)C(=O)N[C@@H](CC(C)C)[C@@H](O)CC(=O)O)C(C)C)C(C)C [Pepstatin A, pepstatin A] (Isovaleryl-VV[Sta]A[Sta]-OH)
- Remaining protease activity (%) Npr599 (Npr599): 67.6% and 75.3% and 77.9%

SMILES: [Mg+2] [Mg2+]
- Effect on InhA caseinolytic activity (in words) (InhA): do not
- Remaining activity (%) InhA (InhA): 76 (6.1) % and 97 (1.7) %
- Effect on Npr599 caseinolytic activity (in words) (Npr599): do not
- Remaining activity (%) Npr599 (Npr599): 83 (2.8) % and 97 (1.4) %

SMILES: [Ni+2] [Ni2+]
- Remaining activity (%) InhA (InhA): 45 (3.4) % and 69 (1.3) %
- Remaining activity (%) Npr599 (Npr599): 46 (1.4) % and 77 (1.4) %

SMILES: [Mn+2] [Mn2+]
- Effect on InhA caseinolytic activity (in words) (InhA): do not
- Remaining activity (%) InhA (InhA): 103 (2.5) % and 91 (5.1) %
- Effect on Npr599 caseinolytic activity (in words) (Npr599): do not
- Remaining activity (%) Npr599 (Npr599): 79 (0.2) % and 96 (4.3) %

SMILES: [Cu+2] [Cu2+]
- Effect on InhA caseinolytic activity (in words) (InhA): inhibit
- Remaining activity (%) InhA (InhA): 0 (0.0) %
- Effect on Npr599 caseinolytic activity (in words) (Npr599): inhibit
- Remaining activity (%) Npr599 (Npr599): 1 (1.0) % and 0 (0.0) %

SMILES: Cl.N[C@@H](CS)C(=O)O [L-Cysteine.HCl]
- Effect on InhA caseinolytic activity (in words) (InhA; 1 mM): no substantial inhibiting activity
- Effect on Npr599 caseinolytic activity (in words) (Npr599; 1 mM): no substantial inhibiting activity

SMILES: CC(C)C[C@H](NP(=O)(O)O[C@@H]1O[C@@H](C)[C@H](O)[C@@H](O)[C@H]1O)C(=O)N[C@@H](Cc1c[nH]c2ccccc12)C(=O)O [Phosphoramidon, phosphoramidon]
- Effect on Npr599-activated syndecan-1 shedding (in words) [1]: abrogate
- Effect on InhA caseinolytic activity (in words) (InhA): less sensitive
- Remaining protease activity (%) InhA (InhA): 45.3% and 80.3% and 87.1%

SMILES: CNC(=O)[C@H](Cc1c[nH]c2ccccc12)NC(=O)[C@@H](CC(=O)NO)CC(C)C [Galardin, Galardin (Ilomastat)]
- Effect on Npr599-activated syndecan-1 shedding (in words) [1]: abrogate
- Effect on InhA caseinolytic activity (in words) (InhA): less sensitive; also recorded: not InhA activity significantly
- Remaining protease activity (%) InhA (InhA): 70.5% and 104% and 103.3%
- Effect on AnlO-induced syndecan-1 shedding (in words) [2]: reduce
- Effect on Npr599 caseinolytic activity (in words) (Npr599): inhibits Npr599 activity strongly

SMILES: CC(=O)N[C@@H](CC(C)C)C(=O)N[C@@H](CC(C)C)C(=O)N[C@H](C=O)CCCNC(=N)N [Leupeptin, leupeptin]
- Remaining protease activity (%) InhA (InhA): 75.1% and 105.6% and 111.4%
- Remaining protease activity (%) Npr599 (Npr599): 95.4% and 106.2%

SMILES: O=S(=O)(F)Cc1ccccc1 [PMSF, phenylmethanesulfonyl fluoride]
- Remaining protease activity (%) InhA (InhA): 111.1% and 109.8% and 94.7%
- Remaining protease activity (%) Npr599 (Npr599): 88.2% and 100.9% and 87.2%

SMILES: OCCS [b-mercaptoethanol, β-mercaptoethanol]
- Remaining protease activity (%) InhA (InhA): 85.8% and 105.8% and 113.4%
- Effect on InhA caseinolytic activity (in words) (InhA; 1 mM): no substantial inhibiting activity
- Remaining protease activity (%) Npr599 (Npr599): 85.4% and 133.4% and 120.7%
- Effect on Npr599 caseinolytic activity (in words) (Npr599; 1 mM): no substantial inhibiting activity

SMILES: O[C@@H](CS)[C@@H](O)CS [DTT]
- Effect on InhA caseinolytic activity (in words) (InhA): inhibits
- Effect on Npr599 caseinolytic activity (in words) (Npr599): inhibits

SMILES: CCCCCCCCCCCCOS(=O)(=O)[O-].[Na+] [SDS]
- Activation of Npr599 (Npr599; 3.5 μM): approximately 2.4 fold

SMILES: COc1cccc(-c2cc(=O)c3ccccc3o2)c1N [PD98059]
- Effect on protease-enhanced syndecan-1 release (in words) [1]: strongly inhibits
- Effect on protease-enhanced syndecan-1 shedding (in words) [1]: some stimulatory effect

SMILES: O=C1c2ccccc2-c2n[nH]c3cccc1c23 [JNK inhibitor, JNK inhibitor II]
- Effect on protease-enhanced syndecan-1 release (in words) [1]: strongly inhibits
- Effect on protease-enhanced syndecan-1 shedding (in words) [1]: some stimulatory effect

SMILES: [Zn+2] [Zn2+]
- Effect on InhA caseinolytic activity (in words) (InhA): inhibit
- Effect on Npr599 caseinolytic activity (in words) (Npr599): inhibit

SMILES: CC(C)C[C@H](NC(=O)[C@H]1O[C@@H]1C(=O)O)C(=O)NCCCCN=C(N)N [E-64]
- Remaining protease activity (%) InhA (InhA): 59.1% and 78.4% and 83.5%
- Remaining protease activity (%) Npr599 (Npr599): 74.1% and 76.1% and 79.5%

SMILES: [Ca+2] [Ca2+]
- Effect on InhA caseinolytic activity (in words) (InhA): do not
- Remaining activity (%) InhA (InhA): 91 (5.2) % and 94 (3.5) %
- Effect on Npr599 caseinolytic activity (in words) (Npr599): do not
- Remaining activity (%) Npr599 (Npr599): 86 (1.5) % and 97 (1.4) %

SMILES: O=C(O)CN(CCN(CC(=O)O)CC(=O)O)CC(=O)O [EDTA, ethylenediaminetetraacetic acid]
- Effect on InhA caseinolytic activity (in words) (InhA): rapidly inhibited
- Remaining protease activity (%) InhA (InhA): 28.2% and 28.7% and 33.1%
- Effect on Npr599 caseinolytic activity (in words) (Npr599): rapidly inhibited
- Remaining protease activity (%) Npr599 (Npr599): 6.5% and 9.5% and 10.5%

SMILES: [Fe+2] [Fe2+]
- Effect on InhA caseinolytic activity (in words) (InhA): inhibit
- Effect on Npr599 caseinolytic activity (in words) (Npr599): inhibit

SMILES: c1cnc2c(c1)ccc1cccnc12 [1,10-phenanthroline, 1, 10-phenanthroline]
- Effect on Npr599-activated syndecan-1 shedding (in words) [1]: abrogate
- Effect on InhA caseinolytic activity (in words) (InhA): rapidly inhibited
- Remaining protease activity (%) InhA (InhA): 0%
- Effect on InhA caseinolytic activity (in words) (InhA; 1 mM): completely abolishes
- Effect on AnlO-induced syndecan-1 shedding (in words) [2]: reduce
- Effect on LeTx-induced syndecan-1 shedding (in words) [2]: reduce
- Effect on TLR2 signaling stimulated by B. anthracis culture supernatant (in words) (TLR2): abrogated
- Effect on Npr599 caseinolytic activity (in words) (Npr599): rapidly inhibited
- Effect on Npr599 caseinolytic activity (in words) (Npr599; 1 mM): completely abolishes

SMILES: Cc1ccc(C(=O)Nc2ccc(S(=O)(=O)O)c3cc(S(=O)(=O)O)cc(S(=O)(=O)O)c23)cc1NC(=O)c1cccc(NC(=O)Nc2cccc(C(=O)Nc3cc(C(=O)Nc4ccc(S(=O)(=O)O)c5cc(S(=O)(=O)O)cc(S(=O)(=O)O)c45)ccc3C)c2)c1 [suramin]
- Effect on syndecan-1 shedding induced by proteases (in words) [1]: effectively inhibits
- Effect on syndecan shedding (in words) ([1]; 20 μM): stimulates
- Effect on AnlO-induced syndecan-1 shedding (in words) [2]: reduce
- Effect on LeTx-induced syndecan-1 shedding (in words) [2]: reduce
